#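 Step 1: Grow cells in 96-well plates. Step 2: Expose to compound for 48 hours at 5 concentrations. Step 3: Interpolate endpoints linearly; if unreached, use highest concentration. At the GI50, growth is halved.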 Calls of active or inactive are those of the source. Cut-off read from the data, not from the text of the source: active = GI50 up to about 1.1 µM and inactive = higher.
# Experiments:
# Experiment in all cases: DTP human tumour cell line panel, 48 h
# PC-3 = test system: PC-3
# EKVX = test system: EKVX
# OVCAR-4 = test system: OVCAR-4
# K562 = test system: K562
# SNB-19 = test system: SNB-19
# HOP-62 = test system: HOP-62
# OVCAR-8 = test system: OVCAR-8
# CAKI-1 = test system: CAKI-1
# DU-145 = test system: DU-145
# SK-OV-3 = test system: SK-OV-3
# SF-295 = test system: SF-295
# UO-31 = test system: UO-31
# HL-60 = test system: HL-60
# NCI-H23 = test system: NCI-H23
# A549 = test system: A549
# OVCAR-3 = test system: OVCAR-3
# SR = test system: SR
# 786-0 = test system: 786-0
# Hs-578T = test system: Hs-578T
# SF-268 = test system: SF-268
Compound,GI50 (PC-3),GI50 (EKVX),GI50 (OVCAR-4),GI50 (K562),GI50 (SNB-19),GI50 (HOP-62),GI50 (OVCAR-8),GI50 (CAKI-1),GI50 (DU-145),GI50 (SK-OV-3),GI50 (SF-295),GI50 (UO-31),GI50 (HL-60),GI50 (NCI-H23),GI50 (A549),GI50 (OVCAR-3),GI50 (SR),GI50 (786-0),GI50 (Hs-578T),GI50 (SF-268)
O=C(O)C(CCc1ccccc1)N1C(=O)c2ccccc2C1=O (centres undefined),> 100 µM (inactive),> 100 µM (inactive),> 100 µM (inactive),> 100 µM (inactive),> 100 µM (inactive),> 100 µM (inactive),> 100 µM (inactive),> 100 µM (inactive),> 100 µM (inactive),> 100 µM (inactive),> 100 µM (inactive),> 100 µM (inactive),> 100 µM (inactive),> 100 µM (inactive),> 100 µM (inactive),> 100 µM (inactive),> 100 µM (inactive),> 100 µM (inactive),–,–
CCOC(=O)/C(=C\NCC(O)c1ccccc1)c1nc2ccccc2[nH]1 (centres undefined),–,21.3 µM (inactive),23.8 µM (inactive),19.8 µM (inactive),48.9 µM (inactive),43.5 µM (inactive),23.2 µM (inactive),32.4 µM (inactive),28.4 µM (inactive),31.8 µM (inactive),24.8 µM (inactive),0.103 µM (active),13.6 µM (inactive),18.1 µM (inactive),33.7 µM (inactive),34.7 µM (inactive),17.5 µM (inactive),27.5 µM (inactive),20.5 µM (inactive),17.3 µM (inactive)
CN(C(=O)c1ccco1)C(=S)N1CCN(c2ccccc2)CC1,–,–,> 100 µM (inactive),> 100 µM (inactive),> 100 µM (inactive),> 100 µM (inactive),> 100 µM (inactive),> 100 µM (inactive),–,> 100 µM (inactive),> 100 µM (inactive),> 100 µM (inactive),> 100 µM (inactive),> 100 µM (inactive),> 100 µM (inactive),> 100 µM (inactive),> 100 µM (inactive),> 100 µM (inactive),–,> 100 µM (inactive)
CC1=NN(C(=O)Nc2ccccc2)C(=O)C2CCC(=O)N12 (centres undefined),–,> 100 µM (inactive),> 100 µM (inactive),> 100 µM (inactive),> 100 µM (inactive),> 100 µM (inactive),> 100 µM (inactive),> 100 µM (inactive),–,> 100 µM (inactive),> 100 µM (inactive),> 100 µM (inactive),> 100 µM (inactive),> 100 µM (inactive),> 100 µM (inactive),> 100 µM (inactive),> 100 µM (inactive),> 100 µM (inactive),–,> 100 µM (inactive)
CC1=CC(=C(c2ccc(N)c(C)c2)c2ccc(N)c(C)c2)C=CC1=N,–,4.89 µM (inactive),10.5 µM (inactive),2.92 µM (inactive),0.689 µM (active),2.79 µM (inactive),1.37 µM (inactive),15.2 µM (inactive),–,4.66 µM (inactive),0.873 µM (active),28.3 µM (inactive),3.72 µM (inactive),2.97 µM (inactive),3.6 µM (inactive),4.49 µM (inactive),2.99 µM (inactive),3.11 µM (inactive),–,0.499 µM (active)
NC(CCCCNC(=O)CNC(=O)OCc1ccccc1)C(=O)NC(CCCCNC(=O)CNC(=O)OCc1ccccc1)C(=O)NC(CCCCNC(=O)CNC(=O)OCc1ccccc1)C(=O)NC(CCCCNC(=O)CNC(=O)OCc1ccccc1)C(=O)NC(CCCCNC(=O)CNC(=O)OCc1ccccc1)C(=O)NC(CCCCNC(=O)CNC(=O)OCc1ccccc1)C(=O)O (centres undefined),> 75 µM (inactive),–,> 75 µM (inactive),> 75 µM (inactive),> 75 µM (inactive),> 75 µM (inactive),> 75 µM (inactive),> 75 µM (inactive),> 75 µM (inactive),–,–,> 75 µM (inactive),> 75 µM (inactive),> 75 µM (inactive),> 75 µM (inactive),> 75 µM (inactive),> 75 µM (inactive),> 75 µM (inactive),–,> 75 µM (inactive)
c1ccc(SC(Sc2ccccc2)=C2CCC2)cc1,–,> 100 µM (inactive),> 100 µM (inactive),> 100 µM (inactive),> 100 µM (inactive),> 100 µM (inactive),> 100 µM (inactive),> 100 µM (inactive),–,> 100 µM (inactive),> 100 µM (inactive),> 100 µM (inactive),> 100 µM (inactive),> 100 µM (inactive),> 100 µM (inactive),> 100 µM (inactive),> 100 µM (inactive),> 100 µM (inactive),–,> 100 µM (inactive)
Cc1ccc(S(=O)(=O)N2CCN(S(=O)(=O)c3ccc(C)cc3)Cc3ccccc3C2)cc1,–,> 100 µM (inactive),18.8 µM (inactive),> 100 µM (inactive),21.6 µM (inactive),20.5 µM (inactive),82.6 µM (inactive),39.4 µM (inactive),> 100 µM (inactive),–,31 µM (inactive),> 100 µM (inactive),> 100 µM (inactive),57.5 µM (inactive),80.5 µM (inactive),56.8 µM (inactive),> 100 µM (inactive),35.2 µM (inactive),24.5 µM (inactive),81.1 µM (inactive)
C/C(=N/O)c1ccc2c(c1)/C(=N/O)c1cc(/C(C)=N/O)ccc1-2,–,7.13 µM (inactive),16.3 µM (inactive),17.8 µM (inactive),13.8 µM (inactive),13.4 µM (inactive),16.7 µM (inactive),35.8 µM (inactive),–,21.4 µM (inactive),15.3 µM (inactive),15.1 µM (inactive),18.4 µM (inactive),12.9 µM (inactive),10.6 µM (inactive),20.3 µM (inactive),3.45 µM (inactive),17.2 µM (inactive),–,14.9 µM (inactive)
C=CCC1C(=O)CC2(C)CC(=O)C(CC=C)C12C (centres undefined),–,> 100 µM (inactive),91 µM (inactive),> 100 µM (inactive),> 100 µM (inactive),> 100 µM (inactive),> 100 µM (inactive),> 100 µM (inactive),–,> 100 µM (inactive),> 100 µM (inactive),> 100 µM (inactive),> 100 µM (inactive),> 100 µM (inactive),> 100 µM (inactive),> 100 µM (inactive),> 100 µM (inactive),> 100 µM (inactive),–,> 100 µM (inactive)
COc1ccc(C(=O)C(CC2C(=O)NC(=O)NC2=O)c2ccc(OC)cc2)cc1 (centres undefined),–,> 100 µM (inactive),> 100 µM (inactive),> 100 µM (inactive),> 100 µM (inactive),> 100 µM (inactive),> 100 µM (inactive),> 100 µM (inactive),–,> 100 µM (inactive),> 100 µM (inactive),> 100 µM (inactive),> 100 µM (inactive),> 100 µM (inactive),> 100 µM (inactive),> 100 µM (inactive),> 100 µM (inactive),> 100 µM (inactive),–,> 100 µM (inactive)
O=C(NNC(=S)Nc1ccccc1)c1csc(NC(=S)NC2CCCCC2)n1,62.4 µM (inactive),20.1 µM (inactive),–,> 10 µM (inactive),–,> 100 µM (inactive),56.5 µM (inactive),> 100 µM (inactive),> 100 µM (inactive),> 100 µM (inactive),> 100 µM (inactive),16.1 µM (inactive),> 100 µM (inactive),> 100 µM (inactive),> 100 µM (inactive),87.5 µM (inactive),49.5 µM (inactive),68.7 µM (inactive),–,99.3 µM (inactive)
COC1=NC(NC2OCC(O)C(O)C2O)=C(NC(C)=O)CN1C (centres undefined),–,> 100 µM (inactive),> 100 µM (inactive),> 100 µM (inactive),> 100 µM (inactive),–,> 100 µM (inactive),> 100 µM (inactive),> 100 µM (inactive),> 100 µM (inactive),> 100 µM (inactive),> 100 µM (inactive),> 100 µM (inactive),> 100 µM (inactive),> 100 µM (inactive),> 100 µM (inactive),–,> 100 µM (inactive),> 100 µM (inactive),> 100 µM (inactive)
CC1=CC(=O)c2ccc3c4ccccc4n(C)c3c2C1=O,–,> 19.8 µM (inactive),74 µM (inactive),16.1 µM (inactive),39.1 µM (inactive),24.9 µM (inactive),58.9 µM (inactive),36.2 µM (inactive),63.2 µM (inactive),> 100 µM (inactive),> 54.5 µM (inactive),> 65.9 µM (inactive),22.8 µM (inactive),14 µM (inactive),48.2 µM (inactive),54.8 µM (inactive),–,56 µM (inactive),62.8 µM (inactive),> 70 µM (inactive)
C=CCc1ccc(O)c(-c2cc(C3Oc4c(-c5cc(CC=C)ccc5O)cc(O)cc4[C@@H]3CO)ccc2O)c1 (some centres undefined),–,64.4 µM (inactive),36.9 µM (inactive),15.6 µM (inactive),28.5 µM (inactive),21.4 µM (inactive),42.4 µM (inactive),47.3 µM (inactive),–,42.7 µM (inactive),48.3 µM (inactive),40.2 µM (inactive),18.5 µM (inactive),23.7 µM (inactive),56 µM (inactive),20.1 µM (inactive),14.4 µM (inactive),33.5 µM (inactive),–,30.3 µM (inactive)
CN(C)/N=N/c1cccc(C(N)=O)c1,–,> 100 µM (inactive),> 100 µM (inactive),> 100 µM (inactive),> 100 µM (inactive),–,> 100 µM (inactive),> 100 µM (inactive),–,> 100 µM (inactive),> 100 µM (inactive),> 100 µM (inactive),> 100 µM (inactive),> 100 µM (inactive),> 100 µM (inactive),> 100 µM (inactive),> 100 µM (inactive),> 100 µM (inactive),–,> 100 µM (inactive)

# Source: ChEMBL document CHEMBL1201862, “PubChem BioAssay data set” (2004)
